Measurements published in US12128028B2, “Heterocyclic sulfonamide derivatives and pharmaceutical uses thereof” (METRION BIOSCIENCES LIMITED, priority 2018, dated 2024).

Target: human Kv1.3 (Homo sapiens (Human), UniProt P22001)
Assay: Kv1.3 potency evaluation, automated patch clamp electrophysiology (QPatch HT) in CHO-Kv1.3 cells
Assay type: cell-based
Settings: whole-cell QPatch HT, % inhibition of charge, step to +30 mV, four concentrations, N≥3 cells, read-out: hKv1.3 IC50
Method in brief: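 Automated whole-cell patch clamp in CHO cells stably expressing human Kv1.3; steps from −80 to +30 mV (500 ms) at 0.067 Hz. Four cumulative concentrations after vehicle (0.1-0.3% DMSO); charge inhibition vs vehicle fitted by four-parameter logistic for IC50, N≥3 cells.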

human Kv1.3, sequence (P22001 whole entry): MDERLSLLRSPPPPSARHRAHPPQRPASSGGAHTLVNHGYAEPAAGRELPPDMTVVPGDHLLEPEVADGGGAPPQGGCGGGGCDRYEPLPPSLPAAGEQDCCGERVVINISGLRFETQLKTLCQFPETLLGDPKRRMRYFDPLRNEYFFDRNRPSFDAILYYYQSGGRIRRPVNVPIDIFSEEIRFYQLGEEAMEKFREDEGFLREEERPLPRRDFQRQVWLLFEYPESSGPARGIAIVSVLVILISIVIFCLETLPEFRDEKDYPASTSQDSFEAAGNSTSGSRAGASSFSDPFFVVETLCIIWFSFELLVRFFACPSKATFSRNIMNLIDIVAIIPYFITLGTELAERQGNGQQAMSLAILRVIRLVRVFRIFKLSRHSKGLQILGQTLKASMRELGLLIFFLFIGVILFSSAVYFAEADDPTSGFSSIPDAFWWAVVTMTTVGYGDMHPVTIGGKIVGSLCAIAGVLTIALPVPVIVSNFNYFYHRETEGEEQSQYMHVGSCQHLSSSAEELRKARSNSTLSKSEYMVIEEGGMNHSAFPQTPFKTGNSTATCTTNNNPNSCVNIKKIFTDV

CC1(C)N=C(C23CC(N(Cc4ccc(Cl)c(F)c4)S(=O)(=O)c4ccccc4)(C2)C3)N[C@H]1C(=O)N(CCC(F)(F)F)C1CC1 (mixture of isomers) [Example 119]
IC50: 0.074 µM

CN(C(=O)[C@@H]1NC(C23CC(N(Cc4ccc(Cl)c(Cl)c4)S(=O)(=O)c4ccccc4)(C2)C3)=NC1(C)C)C1CC(C(F)F)C1 (mixture of isomers) [Example 120]
IC50: 0.074 µM

CC1(C)N=C(C23CC(N(Cc4ccc(Cl)cc4)S(=O)(=O)C4CCCC4)(C2)C3)N[C@H]1C(=O)NCCC(F)(F)F (mixture of isomers) [Example 121]
IC50: 0.075 µM

CC1(C)N=C(C23CC(N(Cc4ccc(C(F)F)cc4)S(=O)(=O)c4ccccc4)(C2)C3)N[C@H]1C(=O)NCCC(F)(F)F (mixture of isomers) [Example 122]
IC50: 0.075 µM

CC1(C)N=C(C23CC(N(Cc4ccc(Cl)c(F)c4)S(=O)(=O)c4ccccc4)(C2)C3)N[C@H]1C(=O)N1CCC(F)(F)CC1 (mixture of isomers) [Example 123]
IC50: 0.075 µM

CC1(C)N=C(C23CC(N(Cc4ccc(Cl)c(F)c4)S(=O)(=O)c4ccccc4)(C2)C3)N[C@H]1C(=O)N1CCC(F)CC1 (mixture of isomers) [Example 124]
IC50: 0.075 µM

CC1(C)N=C(C23CC(N(Cc4ccc(Cl)c(F)c4)S(=O)(=O)c4ccccc4)(C2)C3)N[C@H]1C(=O)N1CC[C@@H](C(F)(F)F)C1 (mixture of isomers) [Example 125]
IC50: 0.075 µM

CC1(C)N=C(C23CC(N(Cc4ccc(Cl)c(F)c4)S(=O)(=O)c4ccccc4)(C2)C3)N[C@H]1C(=O)NCC(F)(F)C(F)(F)F (mixture of isomers) [Example 126]
IC50: 0.076 µM

CC1(F)CCN(C(=O)[C@@H]2NC(C34CC(N(Cc5ccc(Cl)c(F)c5)S(=O)(=O)c5ccccc5)(C3)C4)=NC2(C)C)C1 (mixture of isomers) [Example 127]
IC50: 0.077 µM

CC1(C)N=C(C23CC(N(Cc4ccc(Cl)c(Cl)c4)S(=O)(=O)CCCF)(C2)C3)N[C@H]1C(=O)NCCC(F)(F)F (mixture of isomers) [Example 128]
IC50: 0.077 µM

CC1(C)N=C(C23CC(N(Cc4ccc(Cl)c(F)c4)S(=O)(=O)c4ccccc4)(C2)C3)N[C@H]1C(=O)N1CCC2(C1)CC2(F)F (mixture of isomers) [Example 129]
IC50: 0.078 µM

CCCS(=O)(=O)N(Cc1ccc(Cl)c(Cl)c1)C12CC(C3=NC(C)(C)[C@H](C(=O)N4CCC(C(F)(F)F)CC4)N3)(C1)C2 (mixture of isomers) [Example 130]
IC50: 0.078 µM

CC1(C)N=C(C23CC(N(Cc4ccc(Cl)c(F)c4)S(=O)(=O)c4ccccc4)(C2)C3)N[C@H]1C(=O)N1CCCC(F)(F)CC1 (mixture of isomers) [Example 131]
IC50: 0.078 µM

CC1(C)N=C(C23CC(N(Cc4ccc(Cl)c(Cl)c4)S(=O)(=O)CCCF)(C2)C3)N[C@H]1C(=O)NCC1CC(F)(F)C1 (mixture of isomers) [Example 132]
IC50: 0.078 µM

CN(CC1CC(F)(F)C1)C(=O)[C@@H]1NC(C23CC(N(Cc4ccc(Cl)c(F)c4)S(=O)(=O)c4ccccc4)(C2)C3)=NC1(C)C (mixture of isomers) [Example 133]
IC50: 0.078 µM

CC1(C)N=C(C23CC(N(Cc4ccc(Cl)c(Cl)c4)S(=O)(=O)c4ccccc4)(C2)C3)N[C@H]1C(=O)N1CCC12CC(F)(F)C2 (mixture of isomers) [Example 134]
IC50: 0.079 µM

CC1(C)N=C(C23CC(N(Cc4ccc(Cl)c(F)c4)S(=O)(=O)c4ccccc4)(C2)C3)N[C@@H]1C(=O)NCC1CC(F)(F)C1 (mixture of isomers) [Example 135]
IC50: 0.081 µM

CCCS(=O)(=O)N(Cc1ccc(Cl)c(Cl)c1)C12CC(C3=NC(C)(C)[C@H](C(=O)NCCC(F)(F)F)N3)(C1)C2 (mixture of isomers) [Example 136]
IC50: 0.082 µM

CC1(C)N=C(C23CC(N(Cc4ccc(Cl)cc4)S(=O)(=O)CCC(F)F)(C2)C3)N[C@H]1C(=O)NCCC(F)(F)F (mixture of isomers) [Example 137]
IC50: 0.082 µM

CC1(C)N=C(C23CC(N(Cc4ccc(C(F)(F)F)cc4)S(=O)(=O)c4ccccc4)(C2)C3)N[C@H]1C(=O)NCCC(F)(F)F (mixture of isomers) [Example 138]
IC50: 0.084 µM

CC(C)(C)CS(=O)(=O)N(Cc1ccc(Cl)cc1)C12CC(C3=NC(C)(C)[C@H](C(=O)NCCC(F)(F)F)N3)(C1)C2 (mixture of isomers) [Example 139]
IC50: 0.084 µM

CC1(C)N=C(C23CC(N(Cc4ccc(Cl)c(F)c4)S(=O)(=O)c4ccccc4)(C2)C3)N[C@H]1C(=O)NCC(F)(F)F (mixture of isomers) [Example 140]
IC50: 0.084 µM

CC(C)(CC(F)(F)F)NC(=O)[C@@H]1NC(C23CC(N(Cc4ccc(Cl)c(F)c4)S(=O)(=O)c4ccccc4)(C2)C3)=NC1(C)C (mixture of isomers) [Example 141]
IC50: 0.084 µM

CC1(C)N=C(C23CC(N(Cc4ccc(Cl)c(Cl)c4)S(=O)(=O)CCCF)(C2)C3)N[C@H]1C(=O)NCC(F)(F)C(F)(F)F (mixture of isomers) [Example 142]
IC50: 0.084 µM

CCCS(=O)(=O)N(Cc1ccc(Cl)c(Cl)c1)C12CC(C3=NC(C)(C)[C@H](C(=O)NCC4(C(F)(F)F)CC4)N3)(C1)C2 (mixture of isomers) [Example 143]
IC50: 0.085 µM

CC1(C)N=C(C23CC(N(Cc4ccc(Cl)c(F)c4)S(=O)(=O)c4ccccc4)(C2)C3)N[C@H]1C(=O)N1CCC2(C1)CC(F)(F)C2 (mixture of isomers) [Example 144]
IC50: 0.087 µM

CC1(C)N=C(C23CC(N(Cc4ccc(Cl)c(F)c4)S(=O)(=O)c4ccccc4)(C2)C3)N[C@@H]1C(=O)NCCC(F)(F)F (mixture of isomers) [Example 146]
IC50: 0.088 µM

CN(CCC(F)(F)F)C(=O)[C@@H]1NC(C23CC(N(Cc4ccc(Cl)c(Cl)c4)S(=O)(=O)c4ccccc4)(C2)C3)=NC1(C)C (mixture of isomers) [Example 147]
IC50: 0.088 µM

CC1(C)N=C(C23CC(N(Cc4ccc(Cl)c(F)c4)S(=O)(=O)c4ccccc4)(C2)C3)N[C@H]1C(=O)NCCC1(C(F)(F)F)CC1 (mixture of isomers) [Example 149]
IC50: 0.089 µM

CC(F)(F)CCS(=O)(=O)N(Cc1ccc(Cl)c(Cl)c1)C12CC(C3=NC(C)(C)[C@H](C(=O)NCCC(F)(F)F)N3)(C1)C2 (mixture of isomers) [Example 150]
IC50: 0.09 µM

CN(C(=O)[C@@H]1NC(C23CC(N(Cc4ccc(Cl)c(F)c4)S(=O)(=O)c4ccccc4)(C2)C3)=NC1(C)C)C1CC(F)(F)C1 (mixture of isomers) [Example 151]
IC50: 0.09 µM

CC1(C)N=C(C23CC(N(Cc4ccc(Cl)cc4)S(=O)(=O)c4cccc(C(F)(F)F)c4)(C2)C3)N[C@H]1C(=O)NCCC(F)(F)F (mixture of isomers) [Example 152]
IC50: 0.091 µM

CN(C(=O)[C@@H]1NC(C23CC(N(Cc4ccc(Cl)c(Cl)c4)S(=O)(=O)c4ccccc4)(C2)C3)=NC1(C)C)C1CC(C(F)F)C1 (mixture of isomers) [Example 153]
IC50: 0.091 µM

CC1(C)N=C(C23CC(N(Cc4ccc(Cl)cc4)S(=O)(=O)c4ccccc4)(C2)C3)N[C@H]1C(=O)NCc1c(F)cc(F)cc1F (mixture of isomers) [Example 154]
IC50: 0.091 µM

CC1(C)N=C(C23CC(N(Cc4cc(F)c(Cl)c(F)c4)S(=O)(=O)c4ccccc4)(C2)C3)N[C@H]1C(=O)NCCC(F)(F)F (mixture of isomers) [Example 155]
IC50: 0.092 µM

CC(F)(F)CCS(=O)(=O)N(Cc1ccc(Cl)c(Cl)c1)C12CC(C3=NC(C)(C)[C@H](C(=O)NCC(F)(F)C(F)(F)F)N3)(C1)C2 (mixture of isomers) [Example 156]
IC50: 0.092 µM

CC(F)(F)CCS(=O)(=O)N(Cc1ccc(Cl)c(Cl)c1)C12CC(C3=NC(C)(C)[C@H](C(=O)NCC4CC(F)(F)C4)N3)(C1)C2 (mixture of isomers) [Example 158]
IC50: 0.095 µM

CC(C)(F)CNC(=O)[C@@H]1NC(C23CC(N(Cc4ccc(Cl)c(Cl)c4)S(=O)(=O)CCC(C)(F)F)(C2)C3)=NC1(C)C (mixture of isomers) [Example 159]
IC50: 0.095 µM

CC1(C)N=C(C23CC(N(Cc4ccc(Cl)c(Cl)c4)S(=O)(=O)c4ccccc4)(C2)C3)N[C@H]1C(=O)NC1CC1C(F)(F)F (mixture of isomers) [Example 160]
IC50: 0.097 µM

CC1(C)N=C(C23CC(N(Cc4ccc(Cl)c(F)c4)S(=O)(=O)c4ccccc4)(C2)C3)N[C@H]1C(=O)NCC1(C(F)(F)F)CCC1 (mixture of isomers) [Example 162]
IC50: 0.098 µM

CC1(C)N=C(C23CC(N(Cc4ccc(Cl)c(F)c4)S(=O)(=O)c4ccccc4)(C2)C3)N[C@H]1C(=O)NCC(C)(C)C(F)(F)F (mixture of isomers) [Example 163]
IC50: 0.098 µM

CC1(C)N=C(C23CC(N(Cc4ccc(Cl)c(Cl)c4)S(=O)(=O)CCC(F)F)(C2)C3)N[C@H]1C(=O)NCCC(F)(F)F (mixture of isomers) [Example 165]
IC50: 0.099 µM

CC1(C)N=C(C23CC(N(Cc4ccc(Cl)c(F)c4)S(=O)(=O)c4ccccc4)(C2)C3)N[C@H]1C(=O)N1CCC(F)(F)C2(CC2)C1 (mixture of isomers) [Example 166]
IC50: 0.099 µM

CC1(C)N=C(C23CC(N(Cc4ccc(Cl)c(Cl)c4)S(=O)(=O)c4ccccc4)(C2)C3)N[C@H]1C(=O)N1CCC(F)(F)C2(CC2)C1 (mixture of isomers) [Example 167]
IC50: 0.099 µM

CC1(C)N=C(C23CC(N(Cc4ccc(Cl)c(F)c4)S(=O)(=O)c4ccccc4)(C2)C3)N[C@H]1C(=O)NC(C1CC1)C1CC1 (mixture of isomers) [Example 168]
IC50: 0.099 µM

CC1(C)N=C(C23CC(N(Cc4ccc(Cl)c(F)c4)S(=O)(=O)c4ccccc4)(C2)C3)N[C@H]1C(=O)NC1CC1C(F)(F)F (mixture of isomers) [Example 169]
IC50: 0.1 µM

CC1(C)N=C(C23CC(N(Cc4ccc(Cl)cc4)S(=O)(=O)C4CCC4)(C2)C3)N[C@H]1C(=O)NCCC(F)(F)F (mixture of isomers) [Example 170]
IC50: 0.101 µM

CC1(C)N=C(C23CC(N(Cc4ccc(Cl)c(F)c4)S(=O)(=O)c4ccccc4)(C2)C3)N[C@H]1C(=O)N1CC[C@H](C(F)(F)F)C1 (mixture of isomers) [Example 171]
IC50: 0.102 µM
